Reference: patent US12624044B2, “SMARCA degraders and uses thereof” (Kymera Therapeutics, Inc., priority 2019, dated 2026)

What was measured:
[1] = molecular target: T1, SMARCA4 (Homo sapiens, UniProt P51532); assay: SMARCA4 Western blot MV4-11 degradation; format: cell-based; details: 24 h; for Dmax: MV4-11, MV4-11 cells, read-out: SMARCA4 WB MV411 degradation 24 h: Average Dmax %; for DC50: MV4-11 cells, read-out: SMARCA4 WB MV411 degradation 24 h: Average external-Abs DC50
T1 construct: SMARCA2 and SMARCA4 protein degradation in MV4-11 cells; endogenous in cells; host or cells: MV4-11
Method in brief: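 MV4-11 cells treated with compound for 24 h, lysed in RIPA with protease/phosphatase inhibitors, and SMARCA2 and SMARCA4 (BRG1) levels assessed by Western blot with β-actin loading control and LI-COR fluorescent read-out. Maximal degradation (Dmax %) after 24 h binned into letter codes.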

[2] = molecular target: SMARCA2 (Homo sapiens, UniProt P51531); assay: MSD SMARCA2 degradation in A549 cell line; format: cell-based; details: 24 h; for Dmax: A549, A549 cells; for DC50: A549 cells, read-out: SMARCA2 MSD A549 degradation 24 h: Average external-Abs DC50
Method in brief: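 SMARCA2 remaining was measured by MSD electrochemiluminescence on RIPA lysates (anti-SMARCA2 plus SULFO-TAG anti-rabbit). Prior exposure: 24 h of A549 cells to a 10-point, 3-fold dilution series topping at 1000 nM final; Dmax % given as graded codes.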

Sequence of SMARCA2 (P51531 whole entry): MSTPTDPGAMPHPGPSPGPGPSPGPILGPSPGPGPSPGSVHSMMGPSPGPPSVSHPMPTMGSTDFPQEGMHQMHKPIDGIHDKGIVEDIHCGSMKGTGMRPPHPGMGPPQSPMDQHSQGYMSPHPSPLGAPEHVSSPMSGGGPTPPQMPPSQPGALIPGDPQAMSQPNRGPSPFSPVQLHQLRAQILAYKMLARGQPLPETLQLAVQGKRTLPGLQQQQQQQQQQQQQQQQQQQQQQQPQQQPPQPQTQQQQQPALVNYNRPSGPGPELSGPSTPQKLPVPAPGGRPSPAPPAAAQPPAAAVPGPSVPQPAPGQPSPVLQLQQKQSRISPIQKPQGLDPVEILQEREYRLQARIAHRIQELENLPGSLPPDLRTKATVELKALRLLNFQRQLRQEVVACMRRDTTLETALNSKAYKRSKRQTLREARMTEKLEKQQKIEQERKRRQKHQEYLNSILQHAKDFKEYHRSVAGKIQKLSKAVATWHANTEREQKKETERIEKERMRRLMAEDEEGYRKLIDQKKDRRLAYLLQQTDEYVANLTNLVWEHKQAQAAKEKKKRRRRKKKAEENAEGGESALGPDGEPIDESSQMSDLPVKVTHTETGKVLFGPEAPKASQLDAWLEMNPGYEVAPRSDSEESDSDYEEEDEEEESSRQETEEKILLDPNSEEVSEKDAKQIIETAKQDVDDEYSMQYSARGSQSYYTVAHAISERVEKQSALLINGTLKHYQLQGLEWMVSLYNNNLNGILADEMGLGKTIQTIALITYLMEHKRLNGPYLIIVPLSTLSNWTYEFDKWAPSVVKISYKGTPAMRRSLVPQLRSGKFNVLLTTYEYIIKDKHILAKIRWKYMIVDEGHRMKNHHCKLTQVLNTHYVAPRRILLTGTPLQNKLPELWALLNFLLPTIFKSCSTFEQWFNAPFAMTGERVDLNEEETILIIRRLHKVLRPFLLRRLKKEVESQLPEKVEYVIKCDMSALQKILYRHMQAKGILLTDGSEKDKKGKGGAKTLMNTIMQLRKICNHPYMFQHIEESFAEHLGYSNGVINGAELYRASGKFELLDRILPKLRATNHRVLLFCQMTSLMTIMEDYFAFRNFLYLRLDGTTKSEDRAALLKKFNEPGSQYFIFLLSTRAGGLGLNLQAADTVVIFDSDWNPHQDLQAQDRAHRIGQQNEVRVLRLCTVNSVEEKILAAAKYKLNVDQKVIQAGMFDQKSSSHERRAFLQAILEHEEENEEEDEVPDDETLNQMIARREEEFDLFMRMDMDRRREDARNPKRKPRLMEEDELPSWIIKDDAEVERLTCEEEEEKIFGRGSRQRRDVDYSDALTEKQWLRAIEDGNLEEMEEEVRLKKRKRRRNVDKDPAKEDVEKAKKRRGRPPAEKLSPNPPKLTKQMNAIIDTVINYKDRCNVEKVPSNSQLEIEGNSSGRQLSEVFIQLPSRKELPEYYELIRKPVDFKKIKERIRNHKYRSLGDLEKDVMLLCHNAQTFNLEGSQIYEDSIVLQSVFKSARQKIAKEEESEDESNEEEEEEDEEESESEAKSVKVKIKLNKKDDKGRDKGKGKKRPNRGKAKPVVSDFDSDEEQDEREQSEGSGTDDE
T1 sequence (P51532 whole entry): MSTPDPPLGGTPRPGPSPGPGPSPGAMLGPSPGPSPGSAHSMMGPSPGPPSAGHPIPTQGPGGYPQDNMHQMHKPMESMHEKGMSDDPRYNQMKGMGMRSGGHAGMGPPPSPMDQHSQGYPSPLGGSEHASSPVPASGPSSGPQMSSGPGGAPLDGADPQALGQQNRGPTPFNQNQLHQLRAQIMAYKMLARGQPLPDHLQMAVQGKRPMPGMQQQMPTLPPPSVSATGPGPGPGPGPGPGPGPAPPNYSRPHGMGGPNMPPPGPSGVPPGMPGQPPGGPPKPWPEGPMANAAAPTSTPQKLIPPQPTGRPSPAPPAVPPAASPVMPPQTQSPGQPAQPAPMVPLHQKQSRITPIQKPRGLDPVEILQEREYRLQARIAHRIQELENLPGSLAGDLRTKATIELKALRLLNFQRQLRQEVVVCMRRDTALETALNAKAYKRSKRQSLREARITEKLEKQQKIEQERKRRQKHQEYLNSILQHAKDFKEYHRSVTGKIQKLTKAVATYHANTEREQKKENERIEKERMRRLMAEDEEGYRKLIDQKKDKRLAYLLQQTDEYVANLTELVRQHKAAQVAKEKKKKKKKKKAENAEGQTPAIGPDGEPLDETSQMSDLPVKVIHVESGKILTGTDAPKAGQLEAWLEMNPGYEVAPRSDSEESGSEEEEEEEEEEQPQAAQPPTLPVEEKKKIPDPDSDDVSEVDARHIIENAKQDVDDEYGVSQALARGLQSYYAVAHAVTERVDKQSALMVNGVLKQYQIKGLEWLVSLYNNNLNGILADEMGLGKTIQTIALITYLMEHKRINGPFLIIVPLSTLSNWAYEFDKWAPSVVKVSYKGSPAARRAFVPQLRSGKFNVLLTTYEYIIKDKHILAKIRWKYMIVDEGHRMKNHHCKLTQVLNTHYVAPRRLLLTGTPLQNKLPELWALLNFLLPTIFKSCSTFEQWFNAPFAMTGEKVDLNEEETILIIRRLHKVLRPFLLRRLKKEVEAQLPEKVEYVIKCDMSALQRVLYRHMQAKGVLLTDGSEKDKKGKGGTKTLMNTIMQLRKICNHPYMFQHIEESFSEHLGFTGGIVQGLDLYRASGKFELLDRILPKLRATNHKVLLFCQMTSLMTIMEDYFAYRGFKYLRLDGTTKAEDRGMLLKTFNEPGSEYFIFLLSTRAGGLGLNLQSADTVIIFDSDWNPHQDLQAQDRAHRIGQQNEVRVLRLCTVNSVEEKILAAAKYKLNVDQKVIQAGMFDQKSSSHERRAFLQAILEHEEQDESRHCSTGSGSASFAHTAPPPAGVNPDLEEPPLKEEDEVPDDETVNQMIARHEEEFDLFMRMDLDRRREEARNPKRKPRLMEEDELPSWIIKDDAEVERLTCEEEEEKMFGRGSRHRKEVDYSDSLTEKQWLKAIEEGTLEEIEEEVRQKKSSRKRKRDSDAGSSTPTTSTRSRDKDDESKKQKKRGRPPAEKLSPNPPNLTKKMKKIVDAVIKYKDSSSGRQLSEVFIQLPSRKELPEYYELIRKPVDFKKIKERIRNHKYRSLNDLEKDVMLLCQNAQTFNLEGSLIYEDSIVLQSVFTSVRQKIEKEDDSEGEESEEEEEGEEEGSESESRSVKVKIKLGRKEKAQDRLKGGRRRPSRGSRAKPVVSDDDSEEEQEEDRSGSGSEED

Row | SMILES | Dmax [1] | DC50 [1] | Dmax [2] | DC50 [2]
1 | Cc1ncsc1-c1ccc(CNC(=O)[C@@H]2C[C@@H](O)CN2C(=O)[C@@H](NC(=O)C2CCN(C(=O)c3cnc(N4C5CCC4CN(c4cc(-c6ccccc6O)nnc4N)C5)nc3)CC2)C(C)(C)C)cc1 [I-342, 1-[2-[3-[3-amino-6-(2-hydroxyphenyl)pyridazin-4-yl]-3,8-diazabicyclo [3.2.1]octan-8-yl]pyrimidine-5-carbonyl]-N-[(1S)-1-[(2S,4R)-4-hydroxy-2-[[4-(4-methylthiazol-5-yl)phenyl]methylcarbamoyl]pyrrolidine-1-carbonyl]-2,2-dimethyl-propyl]piperidine-4-carboxamide] | 70 to 90% | 100 to 500 nM | < 50% | > 1000 nM
2 | Cc1ncsc1-c1ccc(CNC(=O)[C@@H]2C[C@@H](O)CN2C(=O)[C@@H](NC(=O)N2CCN(C(=O)c3cnc(N4C5CCC4CN(c4cc(-c6ccccc6O)nnc4N)C5)nc3)CC2)C(C)(C)C)cc1 [I-343] | > 90% | 100 to 500 nM | < 50% | > 1000 nM
3 | Cc1ncsc1-c1ccc(CNC(=O)[C@@H]2C[C@@H](O)CN2C(=O)[C@@H](NC(=O)C(=O)N2CCC(c3cnc(N4C5CCC4CN(c4cc(-c6ccccc6O)nnc4N)C5)nc3)CC2)C(C)(C)C)cc1 [I-344] | 50 to 70% | > 1000 nM | < 50% | > 1000 nM
4 | Cc1cc(CC(=O)N[C@H](C(=O)N2C[C@H](O)C[C@H]2C(=O)NCc2ccc(-c3scnc3C)cc2)C(C)(C)C)ccc1-c1cnc(N2C3CCC2CN(c2cc(-c4ccccc4O)nnc2N)C3)nc1 [I-345] | > 90% | < 100 nM | > 90% | < 100 nM
5 | Cc1ncsc1-c1ccc(CNC(=O)[C@@H]2C[C@@H](O)CN2C(=O)C(NC(=O)C[C@H]2CC[C@@H](N3CCC(c4cnc(N5C6CCC5CN(c5cc(-c7ccccc7O)nnc5N)C6)nc4)CC3)CC2)C(C)(C)C)cc1 (stereo partly drawn) [I-346] | 70 to 90% | < 100 nM | > 90% | 100 to 500 nM
6 | Cc1ncsc1-c1ccc(CNC(=O)[C@@H]2C[C@@H](O)CN2C(=O)[C@@H](NC(=O)[C@H]2CC[C@@H](N3CCC(c4cnc(N5C6CCC5CN(c5cc(-c7ccccc7O)nnc5N)C6)nc4)CC3)CC2)C(C)(C)C)cc1 [I-347] | 50 to 70% | > 1000 nM | 70 to 90% | 100 to 500 nM
7 | Cc1ncsc1-c1ccc(CNC(=O)[C@@H]2C[C@@H](O)CN2C(=O)[C@@H](NC(=O)c2ccc(CN3CCC(c4cnc(N5C6CCC5CN(c5cc(-c7ccccc7O)nnc5N)C6)nc4)CC3)cc2)C(C)(C)C)cc1 [I-348] | > 90% | < 100 nM | > 90% | < 100 nM
8 | Cc1ncsc1-c1ccc(CNC(=O)[C@@H]2C[C@@H](O)CN2C(=O)[C@@H](NC(=O)N2CCC(N3CCC(c4cnc(N5C6CCC5CN(c5cc(-c7ccccc7O)nnc5N)C6)nc4)CC3)CC2)C(C)(C)C)cc1 [I-350, 4-(2-(3-(3-amino-6-(2-hydroxyphenyl)pyridazin-4-yl)-3,8-diazabicyclo [3.2.1]octan-8-yl)pyrimidin-5-yl)-N—((S)-1-((2S,4R)-4-hydroxy-2-((4-(4-methylthiazol-5-yl)benzyl)carbamoyl)pyrrolidin-1-yl)-3,3-dimethyl-1-oxobutan-2-yl)-[1,4′-bipiperidine]-1′-carboxamide] | < 50% | > 1000 nM | < 50% | > 1000 nM
9 | Cc1ncsc1-c1ccc(CNC(=O)[C@@H]2C[C@@H](O)CN2C(=O)[C@@H](NC(=O)CCCCN2CCC(CN3CCC(Cn4cc(-c5cc(-c6ccccc6O)nnc5N)cn4)CC3)CC2)C(C)(C)C)cc1 [I-351] | < 50% | > 1000 nM | < 50% | > 1000 nM
10 | Cc1ncsc1-c1ccc(CNC(=O)[C@@H]2C[C@@H](O)CN2C(=O)[C@@H](NC(=O)CCCCN2CCC(C(=O)N3CCC(Cn4cc(-c5cc(-c6ccccc6O)nnc5N)cn4)CC3)CC2)C(C)(C)C)cc1 [I-352] | < 50% | > 1000 nM | < 50% | > 1000 nM
11 | Cc1ncsc1-c1ccc(CNC(=O)[C@@H]2C[C@@H](O)CN2C(=O)[C@@H](NC(=O)c2ccc(-c3ccc(N4CCC(Cn5cc(-c6cc(-c7ccccc7O)nnc6N)cn5)CC4)cc3)cc2)C(C)(C)C)cc1 [I-353] | 70 to 90% | > 1000 nM | < 50% | > 1000 nM
12 | Cc1ncsc1-c1ccc(CNC(=O)[C@@H]2C[C@@H](O)CN2C(=O)[C@@H](NC(=O)[C@H]2CC[C@H](N3CCC(c4cnc(N5C6CCC5CN(c5cc(-c7ccccc7O)nnc5N)C6)nc4)CC3)CC2)C(C)(C)C)cc1 [I-355] | 70 to 90% | 100 to 500 nM | > 90% | 100 to 500 nM
13 | Cc1ncsc1-c1ccc(CNC(=O)[C@@H]2C[C@@H](O)CN2C(=O)[C@@H](NC(=O)[C@H]2C[C@H](N3CCC(c4cnc(N5C6CCC5CN(c5cc(-c7ccccc7O)nnc5N)C6)nc4)CC3)C2)C(C)(C)C)cc1 [I-356] | > 90% | < 100 nM | 70 to 90% | 100 to 500 nM
14 | Cc1ncsc1-c1ccc(CNC(=O)[C@@H]2C[C@@H](O)CN2C(=O)[C@@H](NC(=O)COCCCc2cnc(N3C4CCC3CN(c3cc(-c5ccccc5O)nnc3N)C4)nc2)C(C)(C)C)cc1 [I-357] | > 90% | < 100 nM | > 90% | 100 to 500 nM
15 | Cc1ncsc1-c1ccc(CNC(=O)[C@@H]2C[C@@H](O)CN2C(=O)[C@@H](NC(=O)[C@H]2C[C@@H](N3CCC(n4cc(-c5cc(-c6ccccc6O)nnc5N)cn4)CC3)C2)C(C)(C)C)cc1 [I-358] | > 90% | 100 to 500 nM | 70 to 90% | 501 to 1000 nM
16 | Cc1ncsc1-c1ccc(CNC(=O)[C@@H]2C[C@@H](O)CN2C(=O)[C@@H](NC(=O)[C@H]2C[C@H](N3CCC(n4cc(-c5cc(-c6ccccc6O)nnc5N)cn4)CC3)C2)C(C)(C)C)cc1 [I-359] | < 50% | > 1000 nM | < 50% | > 1000 nM
17 | Cc1ncsc1-c1ccc(CNC(=O)[C@@H]2C[C@@H](O)CN2C(=O)[C@@H](NC(=O)[C@H]2CC[C@@H](N3CCC(n4cc(-c5cc(-c6ccccc6O)nnc5N)cn4)CC3)CC2)C(C)(C)C)cc1 [I-360] | 50 to 70% | > 1000 nM | < 50% | > 1000 nM
18 | Cc1ncsc1-c1ccc(CNC(=O)[C@@H]2C[C@@H](O)CN2C(=O)[C@@H](NC(=O)[C@H]2CC[C@H](N3CCC(n4cc(-c5cc(-c6ccccc6O)nnc5N)cn4)CC3)CC2)C(C)(C)C)cc1 [I-361] | < 50% | > 1000 nM | 50 to 70% | 501 to 1000 nM
19 | Cc1ncsc1-c1ccc(CNC(=O)[C@@H]2C[C@@H](O)CN2C(=O)[C@@H](NC(=O)[C@H]2CC[C@@H](c3nccc(N4C5CCC4CN(c4cc(-c6ccccc6O)nnc4N)C5)n3)CC2)C(C)(C)C)cc1 [I-362] | > 90% | < 100 nM | 70 to 90% | 501 to 1000 nM
20 | Cc1ncsc1-c1ccc(CNC(=O)[C@@H]2C[C@@H](O)CN2C(=O)[C@@H](NC(=O)[C@H]2CC[C@H](c3nccc(N4C5CCC4CN(c4cc(-c6ccccc6O)nnc4N)C5)n3)CC2)C(C)(C)C)cc1 [I-363] | > 90% | < 100 nM | > 90% | 100 to 500 nM
21 | Cc1ncsc1-c1ccc(CNC(=O)[C@@H]2C[C@@H](O)CN2C(=O)[C@@H](NC(=O)C[C@H]2CC[C@H](c3nccc(N4C5CCC4CN(c4cc(-c6ccccc6O)nnc4N)C5)n3)CC2)C(C)(C)C)cc1 [I-364] | > 90% | < 100 nM | > 90% | 100 to 500 nM
22 | Cc1ncsc1-c1ccc(CNC(=O)[C@@H]2C[C@@H](O)CN2C(=O)[C@@H](NC(=O)C[C@H]2CC[C@@H](c3nccc(N4C5CCC4CN(c4cc(-c6ccccc6O)nnc4N)C5)n3)CC2)C(C)(C)C)cc1 [I-365] | > 90% | < 100 nM | > 90% | 100 to 500 nM
23 | Cc1ncsc1-c1ccc(CNC(=O)[C@@H]2C[C@@H](O)CN2C(=O)[C@@H](NC(=O)CCCN2CCC(c3cnc(N4C5CCC4CN(c4cc(-c6ccccc6O)nnc4N)C5)nc3)CC2)C(C)(C)C)cc1 [I-382] | < 50% | > 1000 nM | < 50% | > 1000 nM
24 | Cc1ncsc1-c1ccc(CNC(=O)[C@@H]2C[C@@H](O)CN2C(=O)[C@@H](NC(=O)CCCCN2CCC(c3cnc(N4C5CCC4CN(c4cc(-c6ccccc6O)nnc4N)C5)nc3)CC2)C(C)(C)C)cc1 [I-383] | > 90% | > 1000 nM | < 50% | > 1000 nM
25 | Cc1ncsc1-c1ccc(CNC(=O)[C@@H]2C[C@@H](O)CN2C(=O)[C@@H](NC(=O)C2CCN(Cc3cnc(N4C5CCC4CN(c4cc(-c6ccccc6O)nnc4N)C5)nc3)CC2)C(C)(C)C)cc1 [I-384] |  | < 100 nM |  | 100 to 500 nM
26 | Cc1ncsc1-c1ccc(CNC(=O)[C@@H]2C[C@@H](O)CN2C(=O)[C@@H](NC(=O)C2CN(Cc3cnc(N4C5CCC4CN(c4cc(-c6ccccc6O)nnc4N)C5)nc3)C2)C(C)(C)C)cc1 [I-385] | > 90% | < 100 nM | 50 to 70% | 501 to 1000 nM
